From patent publication US6133443A, “Optically active 1,4-dihydropyridine derivatives and process for the preparation thereof” (Mercian Corporation, priority 1996, dated 2000)

Assay: Test for solubility in water (deionized water, stirring 3 minutes, presence or absence of insoluble matter)
Conditions: not given

**Q.** For `COC(=O)C1=C(C)NC(C)=C(C(=O)OCCC[n+]2ccn(C)c2)[C@H]1c1cccc([N+](=O)[O-])c1` [Example 6, 3-(1-methylimidazolium)propyl (4S)-1,4-dihydro-2,6-dimethyl-5-methoxycarbonyl-4-(3-nitrophenyl)-pyridine-3-carboxylate iodide], which solubility at 0.05 h is on record?
**A.** ≥ 1000 µg/mL

**Q.** For `COC(=O)C1=C(C)NC(C)=C(C(=O)OCCC[n+]2cccc(C(=O)OC)c2)[C@H]1c1cccc([N+](=O)[O-])c1` [Example 7, 3-(3-methoxycarbonylpyridinium)propyl (4S)-1,4-dihydro-2,6-dimethyl-5-methoxycarbonyl-4-(3-nitrophenyl)-pyridine-3-carboxylate iodide], which solubility at 0.05 h is on record?
**A.** ≥ 1000 µg/mL

**Q.** With `COC(=O)C1=C(C)NC(C)=C(C(=O)OCCC[n+]2cccc(C#N)c2)[C@H]1c1cccc([N+](=O)[O-])c1` [Example 8, 3-(3-cyanopyridinium)propyl (4S)-1,4-dihydro-2,6-dimethyl-5-methoxycarbonyl-4-(3-nitrophenyl)-pyridine-3-carboxylate iodide] as the compound, how does the solubility at 0.05 h read?
**A.** ≥ 1000 µg/mL

**Q.** For `COC(=O)C1=C(C)NC(C)=C(C(=O)OCCC[n+]2ccc(N(C)C)cc2)[C@H]1c1cccc([N+](=O)[O-])c1` [Example 9, 3-(4-dimethylaminopyridinium)propyl (4S)-1,4-dihydro-2,6-dimethyl-5-methoxycarbonyl-4-(3-nitrophenyl)-pyridine-3-carboxylate iodide], which solubility at 0.05 h is on record?
**A.** ≥ 1000 µg/mL

**Q.** For `COC(=O)C1=C(C)NC(C)=C(C(=O)OCCC[n+]2cccc(C(N)=O)c2)[C@H]1c1cccc([N+](=O)[O-])c1` [Example 10, 3-(3-carbamoylpyridinium)propyl (4S)-1,4-dihydro-2,6-dimethyl-5-methoxycarbonyl-4-(3-nitrophenyl)-pyridine-3-carboxylate iodide], which solubility at 0.05 h is on record?
**A.** ≥ 1000 µg/mL

**Q.** Which solubility at 0.05 h does the source give for `COC(=O)C1=C(C)NC(C)=C(C(=O)OCc2cccc[n+]2C)[C@H]1c1cccc([N+](=O)[O-])c1` [Example 11, 3-(1-methyl-2-pyridinium)methyl (4S)-1,4-dihydro-2,6-dimethyl-5-methoxycarbonyl-4-(3-nitrophenyl)-pyridine-3-carboxylate iodide] here?
**A.** ≥ 1000 µg/mL

**Q.** For `COC(=O)C1=C(C)NC(C)=C(C(=O)OCCCc2ccc[n+](C)c2)[C@H]1c1cccc([N+](=O)[O-])c1` [Example 12, 3-(1-methyl-3-pyridinium)propyl (4S)-1,4-dihydro-2,6-dimethyl-5-methoxycarbonyl-4-(3-nitrophenyl)-pyridine-3-carboxylate iodide], which solubility at 0.05 h is on record?
**A.** ≥ 1000 µg/mL

Assay: physchem
Conditions: deionized water
Experimental: The measurements were performed by mixing deionized water with a compound to be tested, subsequently stirring for 3 minutes using a electromagnetic vibrating stirrer, and determining a critical value (solubility) based on presence or absence of insoluble matter.

**Q.** With `COC(=O)C1=C(C)NC(C)=C(C(=O)OCCC[n+]2ccccc2)[C@H]1c1cccc([N+](=O)[O-])c1` [Example 2, 3-pyridiniumpropyl (4S)-1,4-dihydro-2,6-dimethyl-5-methoxycarbonyl-4-(3-nitrophenyl)-pyridine-3-carboxylate iodide] as the compound, how does the solubility at 0.05 h read?
**A.** ≥ 1000 µg/mL

**Q.** For `COC(=O)C1=C(C)NC(C)=C(C(=O)OCCC[n+]2ccncc2)[C@H]1c1cccc([N+](=O)[O-])c1` [Example 3, 3-pyraziniumpropyl (4S)-1,4-dihydro-2,6-dimethyl-5-methoxycarbonyl-4-(3-nitrophenyl)-pyridine-3-carboxylate iodide], which solubility at 0.05 h is on record?
**A.** ≥ 1000 µg/mL

**Q.** For `COC(=O)C1=C(C)NC(C)=C(C(=O)OCCC[n+]2ccsc2)[C@H]1c1cccc([N+](=O)[O-])c1` [Example 4, 3-thiazoliumpropyl (4S)-1,4-dihydro-2,6-dimethyl-5-methoxycarbonyl-4-(3-nitrophenyl)-pyridine-3-carboxylate iodide], which solubility at 0.05 h is on record?
**A.** ≥ 1000 µg/mL

**Q.** With `COC(=O)C1=C(C)NC(C)=C(C(=O)OCCC[n+]2ccccn2)[C@H]1c1cccc([N+](=O)[O-])c1` [Example 5, 3-pyridaziniumpropyl (4S)-1,4-dihydro-2,6-dimethyl-5-methoxycarbonyl-4-(3-nitrophenyl)-pyridine-3-carboxylate iodide] as the compound, how does the solubility at 0.05 h read?
**A.** ≥ 1000 µg/mL
